Values joined by “and” are separate entries in the source; they are usually repeats but may differ in a detail not shown here. Equal entries are not always repeated.
How the values were obtained:
[1] = test system: GJIC in LN215 glioma cells; experiment: I-YFP GJIC assay in LN215 cells; type: cell-based, human; conditions: for Inhibition of GJIC (in words): treated 10 min before assay, LN215 glioma cells
Protocol: The I-YFP GJIC assay was conducted as previously reported ([Lee et al., 2015], [2016]). The scheme of the assay is as follows: donor cells express SLC26A4 as an iodide transporter to allow iodide to the influx and donate iodide to acceptor cells through GJs; the acceptor cells express YFP^QL as an iodide sensor, for which the fluorescence is rapidly and sensitively quenched by iodide transferred from donor cells. A 2:1 mixture of the donor (LN215-I) and acceptor (LN215-YFP) cells were plated on 96-well plates at a density of 20,000 cells/well and grown for 24 h. After the medium was removed, the cells were treated with 100 μL of C-solution (10 mM HEPES, pH 7.4, 140 mM NaCl, 10 mM glucose, 5 mM KCl, 1 mM MgCl2, 1 mM CaCl2) containing vehicle or chemicals, as indicated. A POLARstar microplate reader (BMG Labtech, Ortenberg, Germany) equipped with an automated injector was utilized in the kinetic mode to read the YFP fluorescence of a well every 0.4 s for 10 s. An equal volume of I-solution, with the same composition as C-solution, except for the substitution of NaCl with NaI, was injected into the well 1 s after each recording was started. The % YFP quenching and % GJIC activity were calculated from a previously reported formula ([Lee et al., 2016]).
FIGURE 2 Inhibition of GJIC by GA, D-GA, and T-GA. I-YFP GJIC assay (see Materials and Methods) was conducted using LN215-I and LN215-YFP cells. The vehicle, GA (A), D-GA (B), or T-GA (C) was diluted in C-solution and applied to cells at the concentrations indicated above for 10 min before the GJIC assay. The mean % of GJIC activity ± SD of three independent experiments is presented as bar graphs.

Cx43 [2] = biological target: T1, Cx43 (Homo sapiens, UniProt P17302); experiment: I-YFP GJIC assay, LN215-Cx43 cells; type: cell-based; conditions: 10 min treatment, best fit value ± standard error; read-out: IC50 for inhibition of Cx43-GJIC
T1 construct: expressed in transfected cells; host or cells: GJA1-null LN215 human glioma cells, lentiviral transduction (pLVX-CIBla-Cx43)
Protocol: (§1) GJA1-null LN215 cells were plated on a 24-well plate at 30% confluency, cultivated for 24 h, and transduced with 200 μL of conditioned medium containing lentivirus mixed with an equal volume of fresh growth medium for 15 h. The growth medium was refreshed followed by incubation for a further 72 h before selection with 2 μg/mL puromycin for one week.
(§2) The I-YFP GJIC assay was conducted as previously reported ([Lee et al., 2015], [2016]). The scheme of the assay is as follows: donor cells express SLC26A4 as an iodide transporter to allow iodide to the influx and donate iodide to acceptor cells through GJs; the acceptor cells express YFP^QL as an iodide sensor, for which the fluorescence is rapidly and sensitively quenched by iodide transferred from donor cells. […] A POLARstar microplate reader (BMG Labtech, Ortenberg, Germany) equipped with an automated injector was utilized in the kinetic mode to read the YFP fluorescence of a well every 0.4 s for 10 s. […] The % YFP quenching and % GJIC activity were calculated from a previously reported formula ([Lee et al., 2016]). […]
(§3) FIGURE 10 IC50 values of D-GA and CBX inhibition of GJs composed of Cx43, Cx40, or Cx30. […] The percentage of GJIC inhibition was calculated and plotted against the log [compound] […] The IC50 values were calculated using GraphPad Prism 5.

Cx30 = biological target: T2, Cx30 (Homo sapiens, UniProt O95452); experiment: I-YFP GJIC assay, LN215-Cx30 cells; type: cell-based; conditions: 10 min treatment, best fit value ± standard error; read-out: IC50 for inhibition of Cx30-GJIC
T2 construct: expressed in transfected cells; host or cells: GJA1-null LN215 human glioma cells, lentiviral transduction (pLVX-CIBla-Cx30)
Protocol: as §1, §2, §3

Cx43 [3] = type: cell-based, human; conditions: LN215-Cx43 cells
Protocol: To assess the cellular level and S368 phosphorylation status of Cx43 on cell surfaces and in whole lysates, LN215-Cx43 cells on 100 mm culture plates were biotinylated using EZ-Link^TM Sulfo-NHS-SS-Biotin (ThermoFisher Scientific, Cat. No. 21331) according to the manufacturer’s instructions followed by lysis with PBS containing 1% Triton X-100, 1x protease inhibitor cocktail (Roche), and 1x phosphatase inhibitor cocktail (Pierce). Protein concentration was determined using a BCA assay. To collect surface proteins, 500 μg of protein was bound to 20 μL of NeutrAvidin^TM Agarose (Pierce) followed by elution with 2x Laemmli sample buffer. The surface samples and 20 μg of whole lysates were analyzed using immunoblotting as previously described ([Lee et al., 2016]). To confirm the knockout of GJA1, whole lysates were prepared without surface biotinylation. […] The protein band densities were measured using ImageJ software.
FIGURE 5 Effect of D-GA treatment on surface expression and S368 phosphorylation of Cx43. […] The images before cropping are also presented in Supplementary Figures 1A–E. The relative phospho-S368 Cx43 band intensity, divided by the total Cx43 band intensity, is reflective of Cx43 S368-phosphorylation and was calculated and presented as bar graphs (B). […]

Cx40 = biological target: T3, Cx40 (Homo sapiens, UniProt P36382); experiment: I-YFP GJIC assay, LN215-Cx40 cells; type: cell-based; conditions: 10 min treatment, best fit value ± standard error; read-out: IC50 for inhibition of Cx40-GJIC
T3 construct: expressed in transfected cells; host or cells: GJA1-null LN215 human glioma cells, lentiviral transduction (pLVX-EIBla-Cx40)
Protocol: as §1, §2, §3

LN215 cells = experiment: Measurement of DCFH oxidation (ROS); type: cell-based, human; conditions: D-GA 20 μM 10 min, H2O2 30 min
Protocol: looseness1 LN215 cells were grown to confluency on 96-well plates, washed three times with C-solution, and treated with 100 μL C-solution containing 10 μM 2′–7′-dichlorodihydrofluorescein diacetate (DCFH-DA, Sigma-Aldrich) for 1 h; subsequently, the DCF fluorescence was measured. Chemical treatment was conducted during the DCFH-DA loading period. The DCF fluorescence value, which reflects cellular oxidative stress, was measured using a POLARstar microplate reader using excitation and emission wavelengths of 495 and 520, respectively.
FIGURE 7 No ROS generation results from D-GA treatment in LN215 cells. LN215 cells were plated in 96-well plates and grown to full confluency. After washing with C-solution, the cells were loaded with 10 μM DCFH-DA diluted in C-solution for 1 h before fluorometry. H2O2 or D-GA was added after 30 min or 10 min before the measurement, respectively. The data are the mean ± SD (n = 3). ^∗p < 0.05 (Student’s t-test).

SLC26A4 = biological target: T4, SLC26A4 (Homo sapiens, UniProt O43511); experiment: SLC26A4 inhibition (Supplementary Figure 4); type: cell-based
T4 construct: expressed in transfected cells
T4 sequence (O43511 1-780): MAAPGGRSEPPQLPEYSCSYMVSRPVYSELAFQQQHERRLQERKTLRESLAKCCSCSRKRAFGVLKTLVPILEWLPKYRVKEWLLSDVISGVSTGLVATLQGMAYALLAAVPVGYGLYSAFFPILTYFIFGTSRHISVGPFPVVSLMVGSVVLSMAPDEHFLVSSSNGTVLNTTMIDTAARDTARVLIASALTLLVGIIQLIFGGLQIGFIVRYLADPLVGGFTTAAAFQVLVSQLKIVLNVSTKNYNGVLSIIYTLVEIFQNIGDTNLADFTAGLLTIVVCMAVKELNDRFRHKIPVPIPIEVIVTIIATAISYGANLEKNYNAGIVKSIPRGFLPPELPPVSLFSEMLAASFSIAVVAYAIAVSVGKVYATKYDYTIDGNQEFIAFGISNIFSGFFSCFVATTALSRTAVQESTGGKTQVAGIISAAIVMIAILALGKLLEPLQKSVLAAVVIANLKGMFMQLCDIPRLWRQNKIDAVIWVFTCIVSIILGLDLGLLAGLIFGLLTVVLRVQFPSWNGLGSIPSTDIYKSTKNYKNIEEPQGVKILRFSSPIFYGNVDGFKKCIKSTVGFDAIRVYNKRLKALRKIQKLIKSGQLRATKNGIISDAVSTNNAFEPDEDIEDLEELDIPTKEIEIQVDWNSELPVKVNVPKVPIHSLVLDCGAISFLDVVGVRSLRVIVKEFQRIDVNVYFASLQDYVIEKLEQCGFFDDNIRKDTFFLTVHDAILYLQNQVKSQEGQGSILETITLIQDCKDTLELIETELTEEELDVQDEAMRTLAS

T3 sequence (P36382 whole entry): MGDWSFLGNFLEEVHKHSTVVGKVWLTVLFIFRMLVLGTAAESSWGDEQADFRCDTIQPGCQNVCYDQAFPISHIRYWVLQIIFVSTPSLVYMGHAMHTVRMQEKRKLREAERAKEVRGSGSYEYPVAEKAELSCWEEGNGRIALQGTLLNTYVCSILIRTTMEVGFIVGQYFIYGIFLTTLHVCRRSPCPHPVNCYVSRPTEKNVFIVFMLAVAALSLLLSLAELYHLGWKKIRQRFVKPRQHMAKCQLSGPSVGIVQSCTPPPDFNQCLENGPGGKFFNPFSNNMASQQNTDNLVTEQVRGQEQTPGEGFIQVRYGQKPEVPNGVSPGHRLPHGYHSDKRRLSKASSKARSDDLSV
T1 sequence (P17302 2-382 limits assumed): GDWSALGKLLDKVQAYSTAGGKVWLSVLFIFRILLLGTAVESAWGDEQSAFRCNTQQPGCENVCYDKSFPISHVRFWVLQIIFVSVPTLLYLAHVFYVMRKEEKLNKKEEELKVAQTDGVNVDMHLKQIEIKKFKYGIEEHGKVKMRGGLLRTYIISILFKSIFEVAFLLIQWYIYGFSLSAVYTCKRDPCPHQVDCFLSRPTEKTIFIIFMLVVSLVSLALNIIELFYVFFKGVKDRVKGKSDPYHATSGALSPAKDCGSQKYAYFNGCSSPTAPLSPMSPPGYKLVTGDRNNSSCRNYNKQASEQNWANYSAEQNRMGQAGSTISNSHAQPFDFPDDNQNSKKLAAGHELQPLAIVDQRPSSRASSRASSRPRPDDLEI
T2 sequence (O95452 whole entry): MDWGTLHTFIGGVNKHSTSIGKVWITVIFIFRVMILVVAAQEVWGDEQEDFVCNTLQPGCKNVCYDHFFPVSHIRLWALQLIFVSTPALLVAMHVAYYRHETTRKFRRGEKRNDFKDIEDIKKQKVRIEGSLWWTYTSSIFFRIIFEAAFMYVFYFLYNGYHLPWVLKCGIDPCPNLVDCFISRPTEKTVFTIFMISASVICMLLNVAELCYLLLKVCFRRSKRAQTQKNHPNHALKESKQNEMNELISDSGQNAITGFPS

For `CC(C)=CCCC1(C)C=Cc2c(O)c3c(c(CC=C(C)C)c2O1)OC12C(CC4CC1C(C)(C)OC2(CC=C(C)C(=O)O)C4O)C3=O` (stereo not drawn) [T-GA, tetrahydrogambogic acid], the “Inhibition of GJIC (in words)” value [1] was “inhibited by these compounds in a dose-dependent manner”.
`CC(C)=CCCC1(C)C=Cc2c(O)c3c(c(CC=C(C)C)c2O1)OC12C(=CC4CC1C(C)(C)OC2(C/C=C(/C)C(=O)O)C4O)C3=O` [D-GA, dihydrogambogic acid] was tested, and the IC50 (Cx43 [2]) was 13.1 ± 1.1 µM, the “% GJIC activity” value ([1]; 20 μM for 10 min, LN215-I and LN215-YFP cells, mean ± SD) was 18.1% ± 15.7% and 17.6% ± 7.3% and the “% GJIC activity after washing” value ([1]; 20 μM for 10 min, washed, further 20 min incubation in absence of compound) was 91.4% ± 2.5%. The “Inhibition of GJIC (in words)” value [1] was “inhibited by these compounds in a dose-dependent manner”, the IC50 (Cx30) was 81.1 ± 1.1 µM and the “S368 phosphorylation of surface Cx43 vs vehicle” value (Cx43 [3]; 10 min, 20 μM D-GA or 100 ng/mL PMA + 50 ng/mL EGF) was “did not increase S368 phosphorylation”. The “Cx43 level on cell surfaces” value (Cx43 [3]; 20 μM D-GA 10 min or 1 μg/mL BFA + 10 μg/mL CHX 6 h) was “increased threefold”, the IC50 (Cx40) was 5.1 µM and the “DCF fluorescence (cellular ROS production)” value (LN215 cells) was “did not increase DCF fluorescence”.
With `Cc1[nH]nc(-c2cc(S(=O)(=O)NC3CCCc4ccccc43)c(C)s2)c1C` (stereo not drawn) [PDSinh-C01, reference compound] the “Inhibition of SLC26A4” value (SLC26A4) was “potently inhibited”.
In the case of `CC(=O)OCOC(=O)CN(CC(=O)OCOC(C)=O)c1ccccc1OCCOc1ccccc1N(CC(=O)OCOC(C)=O)CC(=O)OCOC(C)=O` [BAPTA-AM, reference compound], the “Effect of pre-treatment on GJIC activity” value ([1]; 5 μM BAPTA-AM 30 min, control or 20 μM D-GA-treated LN215 cells) is reported as “did not change the GJIC activity”.
In the case of `OO` [H2O2, reference compound], the “DCF fluorescence (cellular ROS production)” value (LN215 cells) is reported as “dose-dependent increase”.
Work on `CC1(C)[C@@H](OC(=O)CCC(=O)O)CC[C@]2(C)[C@H]3C(=O)C=C4[C@@H]5C[C@@](C)(C(=O)O)CC[C@]5(C)CC[C@@]4(C)[C@]3(C)CC[C@@H]12` [CBX, carbenoxolone, reference compound] yielded an IC50 (Cx43 [2]) of 5.6 ± 1.1 µM, an IC50 (Cx30) of 748.2 ± 1.3 µM and an IC50 (Cx40) of 105 µM.
In the case of `CC(C)=CCC[C@]1(C)C=Cc2c(O)c3c(c(CC=C(C)C)c2O1)O[C@]12C(=C[C@@H]4C[C@H]1C(C)(C)O[C@@]2(C/C=C(/C)C(=O)O)C4=O)C3=O` [GA, Gambogic acid], the “Inhibition of GJIC (in words)” value [1] is reported as “inhibited by these compounds in a dose-dependent manner” and the “Inhibition of SLC26A4” value (SLC26A4) is reported as “did not inhibit SLC26A4”.

From PMC6077758, “Gambogic Acid and Its Analogs Inhibit Gap Junctional Intercellular Communication” (Frontiers in Pharmacology, 2018)
